Assay results published in patent US12083105B2, “Compositions and methods for treating adult-onset neuronal ceroid lipofuscinosis (Kufs disease)” (CORNELL UNIVERSITY, priority 2020, dated 2024).

How the values were obtained:
[1] = system: CSPα^L115R and CSPα^L116Δ; test: CSPα oligomerization and palmitoylation in CSPα−/− primary cortical neurons expressing ANCL mutants (SDS-PAGE, quantitative immunoblotting); format: cell-based, mice; settings: 200 μM, 72 h, FIG. 3D; for oligomerization of CSPα^L115R and CSPα^L116Δ: vs vehicle (0.1% DMSO); for palmitoylation of CSPα^L115R and CSPα^L116Δ: vs vehicle
CSPα with SNAP-25 = test: Interaction of CSPα with SNAP-25 in ANCL iNs (SNAP-25 IP, co-IP of CSPα); format: cell-based, human; settings: 72 h, compared to control, FIG. 7C
Protocol: ANCL patient-derived fibroblasts were treated with 200 μM of L1 or Dfx, or vehicle (0.1% DMSO=Control) for 72 h, before measuring the UV-Vis absorbance spectra of immunoprecipitated CSPα eluted by trypsinization (solid lines). Spectra were re-read after 10 min of 0.1 N HCl treatment (dashed lines). The experiments shown in FIGS. 7B-7I, were conducted using ANCL fibroblasts converted to iNs using BAM+ND1 technique. […] Quantitative immunoblotting was used to measure levels of oligomerized and fully palmitoylated CSPα as well as total SNAP-25. Oligo=oligomers; Palm=palmitoylated. […] The interaction of CSPα with SNAP-25 in ANCL iNs was measured by immunoprecipitating SNAP-25 followed by quantitative immunoblotting of co-immunoprecipitated CSPα (normalized to SNAP-25 IP). Note that mainly CSPα monomers and not oligomers were detected bound to SNAP-25. Control=control sham IP without IgG. […] Turnover of SNAP-25 was determined by cycloheximide chase, while maintaining the iron-chelators or vehicle in the medium. […] In the experiments shown in FIGS. 7E-7G, ANCL iNs treated with L1, Dfx, or vehicle for 56 d and analyzed. […] The levels of lipofuscin were determined by ELISA. In the experiments shown in FIGS. 7H-7I 56 day old untreated ANCL iNs were treated with L1, Dfx, or vehicle, and analyzed. […]

ATP5G = ATP5G accumulation in ANCL iNs (quantitative immunoblotting); format: cell-based, human; settings: for accumulation of ATP5G: ANCL iNs treated for 56 d (prevention), FIG. 7F; for ATP5G levels: added to ANCL iNs after 56 days of lipofuscin accumulation, followed 3 weeks (treatment), compared to control, FIG. 7H
Protocol: ANCL patient-derived fibroblasts were treated with 200 μM of L1 or Dfx, or vehicle (0.1% DMSO=Control) for 72 h, before measuring the UV-Vis absorbance spectra of immunoprecipitated CSPα eluted by trypsinization (solid lines). Spectra were re-read after 10 min of 0.1 N HCl treatment (dashed lines). The experiments shown in FIGS. 7B-7I, were conducted using ANCL fibroblasts converted to iNs using BAM+ND1 technique. […] Quantitative immunoblotting was used to measure levels of oligomerized and fully palmitoylated CSPα as well as total SNAP-25. Oligo=oligomers; Palm=palmitoylated. […] The interaction of CSPα with SNAP-25 in ANCL iNs was measured by immunoprecipitating SNAP-25 followed by quantitative immunoblotting of co-immunoprecipitated CSPα (normalized to SNAP-25 IP). Note that mainly CSPα monomers and not oligomers were detected bound to SNAP-25. Control=control sham IP without IgG. […] Turnover of SNAP-25 was determined by cycloheximide chase, while maintaining the iron-chelators or vehicle in the medium. […] In the experiments shown in FIGS. 7E-7G, ANCL iNs treated with L1, Dfx, or vehicle for 56 d and analyzed. […] The levels of lipofuscin were determined by ELISA. In the experiments shown in FIGS. 7H-7I 56 day old untreated ANCL iNs were treated with L1, Dfx, or vehicle, and analyzed. […] Data are from FIG. 7A representative of n=4, FIG. 7B n=4, FIG. 7C n=4, FIG. 7D n=7, FIG. 7F n=4, FIG. 7G n=4, FIG. 7H n=6, FIG. 7I n=3. In FIGS. 7B-7C and FIGS. 7F-7G *P<0.05; **P<0.01; ****P<0.0001 by two-tailed Student's t-test. #P<0.05 by Mann-Whitney-Wilcoxon U test. In FIG. 7D-7C and FIGS. 7H-7I **P<0.01; ***P<0.001; ****P<0.0001 by two-way ANOVA; ##P<0.01; ###P<0.001; ####P<0.0001 by Tukey's multiple comparisons test.
For SDS-PAGE, 10-15% Laemmli gels (10.3% T and 3.3% C) were used to separate proteins on Bio-Rad apparati. Proteins were transferred onto nitrocellulose (pore-size=[…]; GE Healthcare) and blocked with 5% w/v fat-free dry milk in tris buffered saline, pH 7.5 supplemented with 0.1% Tween 20 (TBS-T). Immunoblotting was performed by incubating the blocked membranes with primary antibodies in blocking buffer for 8-16 hours. Following 5 washes with TBS-Tween 20 (0.1%). Blots were incubated with secondary antibodies (goat anti-rabbit conjugated to IRDye […] or 800CW; LI-COR) at 1/5000 in blocking buffer for 1-3 hours. Immunoblots were washed 5× with TBS-T and dried, then scanned on Odyssey CLx (LI-COR) and quantified using Image-Studio software (LI-COR).
For ATPSG immunoblots, following the transfer, nitrocellulose membranes were dried and fixed for 15 min at room temperature in 0.2% glutaraldehyde in PBS. […]
Effect of iron chelators on the accumulation of lipofuscin was monitored by ELISA for lipofuscin or based on lipofuscin autofluorescence. […]

SMILES	oligomerization of CSPα^L115R and CSPα^L116Δ [1]	palmitoylation of CSPα^L115R and CSPα^L116Δ [1]	interaction of CSPα with SNAP-25 (CSPα with SNAP-25)	accumulation of ATP5G (ATP5G)	ATP5G levels (ATP5G)
CC(=O)N(O)CCCCCNC(=O)CCC(=O)N(O)CCCCCNC(=O)CCC(=O)N(O)CCCCCN [Dfx, N′-[5-(Acetyl-hydroxy-amino)pentyl]-N-[5-[3-(5-aminopentyl-hydroxy-carbamoyl)propanoylamino]pentyl]-N-hydroxy-butane diamide]	reduced the oligomerization	improved	improved	trend toward reduced accumulation	diminished down to similar levels as observed in the prevention experiments
Cc1c(O)c(=O)ccn1C [L1, 3-hydroxy-1,2-dimethyl-4(1H)-pyridone]	reduced the oligomerization	improved	improved	trend toward reduced accumulation	diminished down to similar levels as observed in the prevention experiments
